We go through 19 compounds from patent US4668799A, “Anti-hepatitis and anti-cirrhotic 1,3-dithiol-2-ylidene derivatives, and pharmaceutical compositions therefor” (Banyu Pharmaceutical Co., Ltd., priority 1985, dated 1987).

Broadly, the LD50 is the dose at which mortality reaches 50%. A high value points to lower toxicity.

Data set [1] has as its system liver (acute liver injury induced by carbon tetrachloride). The data set is described as follows: Protective Effect on Acute Liver Injury Induced by Carbon Tetrachloride. It is filed as in vivo, mice (ddY). Particulars: mice; for inhibition in vivo at 50 mg/kg: Mus musculus, po, 50 mg/kg p.o. 6 h before CCl4, CCl4 alone = 0, normal = 100; for Liver Damage Index: 50 mg/kg p.o. 6 h before CCl4 0.05 ml/kg p.o., visual score 0 normal, 2 slightly, 4 distinctly, 6 remarkably injured, CCl4 alone 6.0. As for the experimental part:
A test compound was dissolved or suspended in olive oil and administered orally at a dose of 50 mg/kg to mice (ddY, mice, .male., 23±2 g, n=5). After 6 hours, carbon tetrachloride (0.05 ml/kg) was administered orally, 24 Hours after the administration of carbon tetrachloride, BSP (sodium sulfobromophthalene; 75 mg/kg) was administered intravenously. Thirty minutes later, the cardiac blood was collected, and GPT (glutamic-pyruvic transaminase) activity and the retention rate of BSP in the plasma were measured. Further, the liver injury immediately after the collection of the blood was visually observed and evaluated by the following score for liver damage index.

The next data set can be described thus: Acute Toxicity Test. It is filed as in vivo. The note with it: mouse, in vivo; mice, oral, mortality one week after administration. On the procedure:
(§1) A test compound was dissolved or suspended in olive oil and administered orally to mice (ddY mice, .male., 23±2 g, n=5). The acute toxicity value (LD50) was determined from the mortality one week after the administration.

Another data set deals with mice. The data set is described as follows: Acute Toxicity Test. Particulars: oral, one week after administration. The data set is classed as in vivo. As for the experimental part: as §1
The subject of data set [2] is fatty liver induced by carbon tetrachloride. In words: Therapeutic Effect on Fatty Liver Induced by Carbon Tetrachloride. The data set is classed as in vivo, rats (SD strain). Particulars: rats, 50 mg/kg p.o. for 7 days. As for the experimental part:
Carbon tetrachloride (1 ml/kg) was subcutaneously administered to rats (SD strain, .male., 38 week-old, n=5) for 4 days. Upon expiration of 3 days from the administration of carbon tetrachloride, Compound 6 was orally given successively for 7 days at the dose of 50 mg/kg. On the 8th day, the animals were sacrificed by exsanguination. The therapeutic effect was evaluated by examining the content of triglyceride in the liver and the concentration of apoprotein B in the plasma.

The test system of the next data set is liver protein synthesis. The data set is described as follows: Effect on Protein Synthesis in Liver. Particulars: rats, 100 mg/kg p.o. for 3 days. It is filed as in vivo, rats (Wister strain). As for the experimental part:
Compound 6 was dissolved in olive oil and orally administered successively for 3 days at a dose of 100 mg/kg to rats (Wister strain, .male., 180±10 g, 6 week-old, n=5). 24 Hours after the administration of the test compound was completed, the animals were sacrificed. The effect on the protein synthesis in the liver was evaluated by determining the liver weight and protein content.

For the next data set, the system named is liver damages. The note with it: in vivo; cited from earlier work.
[3] abbreviates: BSP 75 mg/kg i.v., retention in plasma after 30 min, read-out: % Prophylaxis BSP.
The mark [4] stands for this setting: plasma GPT activity, read-out: % Prophylaxis p-GPT.

Like-named read-outs stand apart in the source and are kept apart here. Where only a bound is given, the exact number is not on record here.

For `CC(=O)C(C(C)=O)=C1SC=CS1` [Compound 1, 3-(1,3-dithiol-2-ylidene)-2,4-pentanedione], the inhibition in vivo at 50 mg/kg in data set [1] (setting [3]) was determined as 80%; in data set [1] (setting [4]), 25%. The “Liver Damage Index” value in data set [1] was 5.0.
For `CCC(=O)C(C(C)=O)=C1SC=CS1` [Compound 2, 3-(1,3-dithiol-2-ylidene)-2,4-hexanedione], in that order: 85%, 72% and 1.4.
The matching figures for `CCOCC(=O)C(C(C)=O)=C1SC=CS1` [Compound 3, 3-(1,3-dithiol-2-ylidene)-1-ethoxy-2,4-pentanedione]: 102%, 97% and 2.2.
For the compound `CC(C)CC(=O)C(C(=O)CC(C)C)=C1SC=CS1` [Compound 4, 5-(1,3-dithiol-2-ylidene)-2,8-dimethyl-4,6-nonanedione], the inhibition in vivo at 50 mg/kg in data set [1] (setting [3]) amounted to 108%; in data set [1] (setting [4]), 100%. Moreover, in data set [1], the “Liver Damage Index” value is reported as 1.0. The LD50 at 168 h in the data set “Acute Toxicity Test” was at least 2000 mg/kg. Besides, the “toxicity (in words)” value with mice is recorded as “low toxicity”.
For `CC(=O)C(C(=O)C1CCCCC1)=C1SC=CS1` [Compound 5, 2-(1,3-dithiol-2-ylidene)-1-cyclohexyl-1,3-butanedione], in that order: 96%, 89%, 2.8, at least 2000 mg/kg and “low toxicity”.
Regarding `CC(=O)C(C(=O)c1ccccc1)=C1SC=CS1` [Compound 6, 2-(1,3-dithiol-2-ylidene)-1-phenyl-1,3-butanedione], the “effect for curing the fatty liver (in words)” value in data set [2] is reported as “significant effect for curing the fatty liver”. Moreover, the “effect for stimulating the protein metabolic function of the liver (in words)” value in the data set on liver protein synthesis is given as “substantial effect for stimulating the protein metabolic function of the liver”. This compound had an LD50 at 168 h in the data set “Acute Toxicity Test” of at least 2000 mg/kg. In addition, the “toxicity (in words)” value in the data set on mice is on record as “low toxicity”.
In turn, `CCCC(=O)C(C(=O)c1ccccc1)=C1SC=CS1` [Compound 7, 2-(1,3-dithiol-2-ylidene)-1-phenyl-1,3-hexanedione] showed an LD50 at 168 h in “Acute Toxicity Test” of at least 2000 mg/kg. Besides, in the data set on mice, the “toxicity (in words)” value is recorded as “low toxicity”.
For `CC(C)CC(=O)C(C(=O)c1ccccc1)=C1SC=CS1` [Compound 8, 2-(1,3-dithiol-2-ylidene)-5-methyl-1-phenyl-1,3-hexanedione], in that order: at least 2000 mg/kg and “low toxicity”.
Take `CCCCCCCCCCCCCCCC(=O)C(C(=O)c1ccccc1)=C1SC=CS1` [Compound 10, 2-(1,3-dithiol-2-ylidene)-1-phenyl-1,3-octadecanedione]: the inhibition in vivo at 50 mg/kg in data set [1] (setting [3]) amounted to 78%; in data set [1] (setting [4]) it was 42%. Also, the “Liver Damage Index” value in data set [1] amounted to 2.0.
On to `CC(=O)C(C(=O)c1ccc(C)cc1)=C1SC=CS1` [Compound 12, 2-(1,3-dithiol-2-ylidene)-1-(4-methylphenyl)-1,3-butanedione], for which, in the data set “Acute Toxicity Test”, the LD50 at 168 h was at least 2000 mg/kg. In addition, the “toxicity (in words)” value with mice is listed as “low toxicity”.
For `COc1ccc(C(=O)C(C(C)=O)=C2SC=CS2)cc1` [Compound 17, 2-(1,3-dithiol-2-ylidene)-1-(4-methoxyphenyl)-1,3-butanedione], in that order: at least 2000 mg/kg and “low toxicity”.
For `CC(=O)C(C(=O)c1cccc2ccccc12)=C1SC=CS1` [Compound 27, 2-(1,3-dithiol-2-ylidene)-1-(1-naphthyl)-1,3-butanedione], in that order: at least 2000 mg/kg and “low toxicity”.
Regarding `CC(=O)C(C(=O)c1ccc2ccccc2c1)=C1SC=CS1` [Compound 28, 2-(1,3-dithiol-2-ylidene)-1-(2-naphthyl)-1,3-butanedione], the median lethal dose (LD50) at 168 h in the data set “Acute Toxicity Test” is at least 2000 mg/kg. Moreover, the “toxicity (in words)” value in the data set on mice is on record as “low toxicity”.
Consider `O=C1CCCC(=O)C1=C1SC=CS1` [Compound 41, 2-(1,3-dithiol-2-ylidene)-1,3-cyclohexanedione], for which the inhibition in vivo at 50 mg/kg in data set [1] (setting [3]) came out at 66%; in data set [1] (setting [4]) it was 29%. In addition, the “Liver Damage Index” value in data set [1] came out at 6.0.
For `CC1CCC(=O)C(=C2SC=CS2)C1=O` (centres unmarked) [Compound 42, 2-(1,3-dithiol-2-ylidene)-4-methyl-1,3-cyclohexanedione], in that order: 60%, 29% and 6.0.
The matching figures for `CC(C)C1CCC(=O)C(=C2SC=CS2)C1=O` (centres unmarked) [Compound 43, 2-(1,3-dithiol-2-ylidene)-4-isopropyl-1,3-cyclohexanedione]: 95%, 67% and 5.6.
The matching figures for `CC1(C)CC(=O)C(=C2SC=CS2)C(=O)C1` [Compound 44, 2-(1,3-dithiol-2-ylidene)-5,5-dimethyl-1,3-cyclohexanedione]: 111%, 95% and 1.2.
Compound `CC(=O)C(C(=O)c1ccc(O)cc1)=C1SC=CS1` [Compound 45, 2-(1,3-dithiol-2-ylidene)-1-(4-hydroxyphenyl)-1,3-butanedione] came in with an LD50 at 168 h in the data set “Acute Toxicity Test” of at least 2000 mg/kg. For the same compound, the “toxicity (in words)” value in the data set on mice is “low toxicity”.
As for `CC(C)OC(=O)C(C(=O)OC(C)C)=C1SC=CS1` [Malotilate], the “effectiveness for the treatment of liver damages (in words)” value in the data set on liver damages is reported as “effective for the treatment of liver damages”.
